Experimental data: PubChem BioAssay (NCI)
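Test compounds were applied to cells in 96-well plates for 48 hours at 5 doses. GI50 marks 50% less growth. At the TGI there is no net growth.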

Test system: U251 CNS
Experiment: NCI-60 cell line screen, 48 h

| SMILES | GI50 [µM] | TGI [µM] |
| --- | --- | --- |
| CC(=O)OCC1OC([S-])C(OC(C)=O)C(OC(C)=O)C1OC(C)=O.CC[PH+](CC)CC.CC[PH+](CC)CC.[Au].[Au] (stereo not drawn) | 0.149 | 0.306 |
| O=C(C[n+]1ccccc1)NNC(=O)/C(=C/c1ccc2c(c1)OCO2)NC(=O)c1ccccc1 | – | > 76.5 |
| Cc1cccc(NC(=O)/C=C/c2ccc(N(CCC#N)CCC#N)cc2C)c1 | – | > 100 |
| Clc1ccc(-c2c(C3=NCCN3)nnn2-c2ccc(Cl)cc2)cc1 | – | 45.2 |
| Nc1ccc(C(=O)NN2C(=O)C(Cl)C2c2ccccc2Cl)cc1 (stereo not drawn) | – | 24.7 |

Test system: DMS 114 small cell lung
Experiment: NCI-60 cell line screen, 48 h

| SMILES | TGI [µM] |
| --- | --- |
| O=C(C[n+]1ccccc1)NNC(=O)/C(=C/c1ccc2c(c1)OCO2)NC(=O)c1ccccc1 | 46.4 |
| Cc1cccc(NC(=O)/C=C/c2ccc(N(CCC#N)CCC#N)cc2C)c1 | > 100 |
| Clc1ccc(-c2c(C3=NCCN3)nnn2-c2ccc(Cl)cc2)cc1 | 31.5 |
| Nc1ccc(C(=O)NN2C(=O)C(Cl)C2c2ccccc2Cl)cc1 (stereo not drawn) | 18.8 |

Test system: IGROV1 ovarian
Experiment: NCI-60 cell line screen, 48 h

| SMILES | GI50 [µM] | TGI [µM] |
| --- | --- | --- |
| CC(=O)OCC1OC([S-])C(OC(C)=O)C(OC(C)=O)C1OC(C)=O.CC[PH+](CC)CC.CC[PH+](CC)CC.[Au].[Au] (stereo not drawn) | 0.306 | 1.09 |
| O=C(C[n+]1ccccc1)NNC(=O)/C(=C/c1ccc2c(c1)OCO2)NC(=O)c1ccccc1 | – | > 100 |
| Cc1cccc(NC(=O)/C=C/c2ccc(N(CCC#N)CCC#N)cc2C)c1 | – | > 100 |
| Clc1ccc(-c2c(C3=NCCN3)nnn2-c2ccc(Cl)cc2)cc1 | – | > 100 |
| Nc1ccc(C(=O)NN2C(=O)C(Cl)C2c2ccccc2Cl)cc1 (stereo not drawn) | – | 26.4 |
| O=C(CCC(=O)Nc1cccc(Cl)c1)CC(=O)c1ccc(Cl)cc1 | – | > 100 |

Test system: SNB-78 CNS
Experiment: NCI-60 cell line screen, 48 h

| SMILES | GI50 [µM] | TGI [µM] |
| --- | --- | --- |
| CC(=O)OCC1OC([S-])C(OC(C)=O)C(OC(C)=O)C1OC(C)=O.CC[PH+](CC)CC.CC[PH+](CC)CC.[Au].[Au] (stereo not drawn) | 0.311 | 2.79 |
| O=C(C[n+]1ccccc1)NNC(=O)/C(=C/c1ccc2c(c1)OCO2)NC(=O)c1ccccc1 | – | > 100 |
| Clc1ccc(-c2c(C3=NCCN3)nnn2-c2ccc(Cl)cc2)cc1 | – | 61.7 |
| Nc1ccc(C(=O)NN2C(=O)C(Cl)C2c2ccccc2Cl)cc1 (stereo not drawn) | – | 33 |
| O=C(CCC(=O)Nc1cccc(Cl)c1)CC(=O)c1ccc(Cl)cc1 | – | > 100 |

Test system: NCI-H460 lung
Experiment: NCI-60 cell line screen, 48 h

| SMILES | TGI [µM] |
| --- | --- |
| O=C(C[n+]1ccccc1)NNC(=O)/C(=C/c1ccc2c(c1)OCO2)NC(=O)c1ccccc1 | 98.3 |
| Cc1cccc(NC(=O)/C=C/c2ccc(N(CCC#N)CCC#N)cc2C)c1 | > 100 |
| Clc1ccc(-c2c(C3=NCCN3)nnn2-c2ccc(Cl)cc2)cc1 | > 100 |
| Nc1ccc(C(=O)NN2C(=O)C(Cl)C2c2ccccc2Cl)cc1 (stereo not drawn) | 16.5 |
| O=C(CCC(=O)Nc1cccc(Cl)c1)CC(=O)c1ccc(Cl)cc1 | > 100 |

Test system: UACC-62 melanoma
Experiment: NCI-60 cell line screen, 48 h

| SMILES | GI50 [µM] | TGI [µM] |
| --- | --- | --- |
| CC(=O)OCC1OC([S-])C(OC(C)=O)C(OC(C)=O)C1OC(C)=O.CC[PH+](CC)CC.CC[PH+](CC)CC.[Au].[Au] (stereo not drawn) | 0.119 | 0.307 |
| O=C(C[n+]1ccccc1)NNC(=O)/C(=C/c1ccc2c(c1)OCO2)NC(=O)c1ccccc1 | – | > 100 |
| Cc1cccc(NC(=O)/C=C/c2ccc(N(CCC#N)CCC#N)cc2C)c1 | – | > 100 |
| Clc1ccc(-c2c(C3=NCCN3)nnn2-c2ccc(Cl)cc2)cc1 | – | 32.7 |
| Nc1ccc(C(=O)NN2C(=O)C(Cl)C2c2ccccc2Cl)cc1 (stereo not drawn) | – | 20.8 |
| O=C(CCC(=O)Nc1cccc(Cl)c1)CC(=O)c1ccc(Cl)cc1 | – | > 100 |

Test system: SF-539 CNS
Experiment: NCI-60 cell line screen, 48 h

| SMILES | GI50 [µM] | TGI [µM] |
| --- | --- | --- |
| CC(=O)OCC1OC([S-])C(OC(C)=O)C(OC(C)=O)C1OC(C)=O.CC[PH+](CC)CC.CC[PH+](CC)CC.[Au].[Au] (stereo not drawn) | 0.18 | 0.624 |
| O=C(C[n+]1ccccc1)NNC(=O)/C(=C/c1ccc2c(c1)OCO2)NC(=O)c1ccccc1 | – | 75.1 |
| Cc1cccc(NC(=O)/C=C/c2ccc(N(CCC#N)CCC#N)cc2C)c1 | – | > 100 |
| Clc1ccc(-c2c(C3=NCCN3)nnn2-c2ccc(Cl)cc2)cc1 | – | 34.2 |
| Nc1ccc(C(=O)NN2C(=O)C(Cl)C2c2ccccc2Cl)cc1 (stereo not drawn) | – | 20.2 |
| O=C(CCC(=O)Nc1cccc(Cl)c1)CC(=O)c1ccc(Cl)cc1 | – | > 100 |

Test system: CCRF-CEM leukemia
Experiment: NCI-60 cell line screen, 48 h

| SMILES | GI50 [µM] | TGI [µM] |
| --- | --- | --- |
| CC(=O)OCC1OC([S-])C(OC(C)=O)C(OC(C)=O)C1OC(C)=O.CC[PH+](CC)CC.CC[PH+](CC)CC.[Au].[Au] (stereo not drawn) | 0.0748 | 0.277 |
| O=C(C[n+]1ccccc1)NNC(=O)/C(=C/c1ccc2c(c1)OCO2)NC(=O)c1ccccc1 | – | 65 |
| Cc1cccc(NC(=O)/C=C/c2ccc(N(CCC#N)CCC#N)cc2C)c1 | – | > 100 |
| Clc1ccc(-c2c(C3=NCCN3)nnn2-c2ccc(Cl)cc2)cc1 | – | 73 |
| Nc1ccc(C(=O)NN2C(=O)C(Cl)C2c2ccccc2Cl)cc1 (stereo not drawn) | – | 6.67 |
